Results published in US20250296971A1, “GASTRIC INHIBITORY PEPTIDE RECEPTOR LIGANDS” (priority 2021, published 2025).
Like-named read-outs stand apart in the source and are kept apart here. *1 amine or outer side, *2 acyl side, *3 side chain or, on linkers, in order; H or OH if unused. Where a SMILES comes first, the peptide text is derived from it. Bridges are numbered along the chain shown (N, C = ends). [ ]: non-standard residue; d: D form. The star is where a group is joined. X13 = O=C(CN1CCN2CCN3CCN(CC1)CC(=O)[O][Lu]([O]C(=O)C2)[O]C(=O)C3)NCCCOCCOCCOCCCN*; X3 = O=C(O)CN1CCN(CC(=O)O)CCN(CC(=O)NCCCOCCOCCOCCCN*)CCN(CC(=O)O)CC1; NH(1-deoxy-D-glucityl) = OC[C@@H](O)[C@@H](O)[C@H](O)[C@@H](O)CN*; DOTA = O=C(O)CN1CCN(CC(=O)O)CCN(CC(=O)*)CCN(CC(=O)O)CC1; Trp(5-Cl) = N[C@@H](Cc1c[nH]c2ccc(Cl)cc12)C(=O)O; Pyridine(2,6-diCH2) = c1cc(C[*:1])nc(C[*:2])c1; Pro(4R-NH2) = N[C@H]1CN[C@H](C(=O)O)C1; mXylylene = c1cc(C[*:1])cc(C[*:2])c1; X7 = c1cc(CSCCN[*:2])cc(C[*:1])c1; Hyp = O=C(O)[C@@H]1C[C@@H](O)CN1; X1 = O=C(CN1CCC(N[*:1])CC1)[*:2]; Suc = O=C(CCC(=O)[*:2])[*:1]; αMeS = C[C@](N)(CO)C(=O)O; Api = NC1(C(=O)O)CCNCC1; Thp = NC1(C(=O)O)CCOCC1; AEEA = NCCOCCOCC(=O)O

Molecular target: T1, GIPR (CHO-K1-hGIPR cells) (Homo sapiens, UniProt P48546)
T1 construct: host or cells: CHO-K1
T1 sequence (P48546 22-466): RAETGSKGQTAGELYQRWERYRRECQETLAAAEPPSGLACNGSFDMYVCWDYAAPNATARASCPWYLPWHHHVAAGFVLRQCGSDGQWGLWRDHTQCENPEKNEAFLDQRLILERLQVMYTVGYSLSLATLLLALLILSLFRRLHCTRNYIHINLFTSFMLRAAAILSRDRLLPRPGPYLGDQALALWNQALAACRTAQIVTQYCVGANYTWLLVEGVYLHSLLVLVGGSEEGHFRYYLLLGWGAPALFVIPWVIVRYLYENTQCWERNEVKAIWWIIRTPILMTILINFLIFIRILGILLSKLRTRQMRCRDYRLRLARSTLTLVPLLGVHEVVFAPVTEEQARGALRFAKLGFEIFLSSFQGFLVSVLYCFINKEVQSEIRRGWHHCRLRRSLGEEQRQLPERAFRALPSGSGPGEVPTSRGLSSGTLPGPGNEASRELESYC
Test: FACS binding assay
Outline: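 CHO-K1 cells expressing human GIPR, washed in PBS/1% FCS, then stained with 1 μg/mL APC-streptavidin for 30 min on ice.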

[1] = competition with 20 nM GIP-057, 4° C. for 1 hour, read-out: pIC50 Category (converted)
[2] = competition with 20 nM GIP-057, 4° C., 1 hour, read-out: pIC50 Category (converted)

Row | IC50 [1] [nM] | IC50 [2] [nM] | Structure (SMILES) | also measured
1 | < 10 | – | CC[C@H](C)[C@@H]1NC(=O)[C@H](CC(C)C)NC(=O)C2(CCOCC2)NC(=O)[C@@H](NC(=O)[C@@H](CC(C)C)NC(=O)[C@H](CO)NC(=O)[C@@H]2C[C@@H](O)CN2C(=O)[C@H](Cc2c[nH]c3ccc(Cl)cc23)NC(=O)[C@H](Cc2c[nH]c3ccccc23)NC(=O)[C@H](CC(=O)O)NC(C)=O)CSCc2cccc(n2)CSC[C@@H](C(N)=O)NC1=O [GIP-384, Ac-Asp-Trp-5Clw-Hyp-Ser-leu-[Cys(2Lut)-Thp-Leu-Ile-Cys]-NH2] (Ac-DW[Trp(5-Cl)][Hyp]S[dL]C[Thp]LIC-NH2; linker 7-11 via Pyridine(2,6-diCH2)) | –
2 | – | < 10 | CC[C@H](C)[C@@H]1NC(=O)[C@H](CC(C)C)NC(=O)C2(CCOCC2)NC(=O)[C@@H](NC(=O)[C@@H](CC(C)C)NC(=O)[C@H](CCC(=O)O)NC(=O)[C@@H]2C[C@@H](O)CN2C(=O)[C@H](Cc2c[nH]c3ccc(Cl)cc23)NC(=O)[C@H](Cc2c[nH]c3ccccc23)NC(=O)[C@H](CC(=O)O)NC(C)=O)CSCc2cccc(n2)CSC[C@@H](C(=O)NC2CCN(CC(=O)N[C@H](CCC(=O)NC[C@H](O)[C@@H](O)[C@H](O)[C@H](O)CO)C(N)=O)CC2)NC1=O [GIP-177, Ac-Asp-Trp-5Clw-Hyp-Glu-leu-[Cys(2Lut)-Thp-Leu-Ile-Cys]-APAc-glu(AGLU)-NH2] (Ac-DW[Trp(5-Cl)][Hyp]E[dL]C[Thp]LIC[X1][dE](NH(1-deoxy-D-glucityl))-NH2; linker 7-11 via Pyridine(2,6-diCH2)) | –
3 | – | – | CC[C@H](C)[C@@H]1NC(=O)[C@H](CC(C)C)NC(=O)[C@](C)(CO)NC(=O)[C@@H](NC(=O)[C@@H](CC(C)C)NC(=O)[C@H](CCC(=O)O)NC(=O)[C@@H]2CCCN2C(=O)[C@H](Cc2c[nH]c3ccc(Cl)cc23)NC(=O)[C@H](Cc2c[nH]c3ccccc23)NC(=O)[C@H](CC(=O)O)NC(=O)CCC(=O)NCCCOCCOCCOCCCNC(=O)CN2CCN3CCN4CCN(CC2)CC(=O)[O][Lu]([O]C(=O)C3)[O]C(=O)C4)CSCc2cccc(c2)CSCCNC1=O [GIP-157, LuDOTA-Ttds-Asp-Trp-5Clw-Pro-Glu-leu-[Cys(3MeBn)-Ams-Leu-Ile-AET]] ({X13-Suc}-DW[Trp(5-Cl)]PE[dL]C[αMeS]LI; linker 7-C via X7) | IC50 (pIC50 Category, competition with 20 nM GIP-057, 4° C., 1 hour): < 10 nM
4 | – | < 10 | CC[C@H](C)[C@@H]1NC(=O)[C@H](CC(C)C)NC(=O)C2(CCN(C(=O)CN3CCN(CC(=O)O)CCN(CC(=O)O)CCN(CC(=O)O)CC3)CC2)NC(=O)[C@@H](NC(=O)[C@@H](CC(C)C)NC(=O)[C@H](CCC(=O)O)NC(=O)[C@@H]2C[C@@H](N)CN2C(=O)[C@H](Cc2c[nH]c3ccc(Cl)cc23)NC(=O)[C@H](Cc2c[nH]c3ccccc23)NC(=O)[C@H](CC(=O)O)NC(C)=O)CSCc2cccc(n2)CSC[C@@H](C(N)=O)NC1=O [GIP-123, Ac-Asp-Trp-5Clw-Tap-Glu-leu-[Cys(2Lut)-Apc(DOTA)-Leu-Ile-Cys]-NH2] (Ac-DW[Trp(5-Cl)][Pro(4R-NH2)]E[dL]C[Api](DOTA)LIC-NH2; linker 7-11 via Pyridine(2,6-diCH2)) | –
5 | – | < 10 | CC[C@H](C)[C@@H]1NC(=O)[C@H](CC(C)C)NC(=O)C2(CCOCC2)NC(=O)[C@@H](NC(=O)[C@@H](CC(C)C)NC(=O)[C@H](CCC(=O)O)NC(=O)[C@@H]2C[C@@H](N)CN2C(=O)[C@H](Cc2c[nH]c3ccc(Cl)cc23)NC(=O)[C@H](Cc2c[nH]c3ccccc23)NC(=O)[C@H](CC(=O)O)NC(=O)COCCOCCNC(=O)[C@@H](CCC(=O)NC[C@H](O)[C@@H](O)[C@H](O)[C@H](O)CO)NC(=O)CN2CCN(CC(=O)O)CCN(CC(=O)O)CCN(CC(=O)O)CC2)CSCc2cccc(n2)CSC[C@@H](C(=O)NC2CCN(CC(=O)N[C@H](CCC(=O)NC[C@H](O)[C@@H](O)[C@H](O)[C@H](O)CO)C(N)=O)CC2)NC1=O [GIP-020, DOTA-glu(AGLU)-O2Oc-Asp-Trp-5Clw-Tap-Glu-leu-[Cys(2Lut)-Thp-Leu-Ile-Cys]-APAc-glu(AGLU)-NH2] ({DOTA}-[dE](NH(1-deoxy-D-glucityl))[AEEA]DW[Trp(5-Cl)][Pro(4R-NH2)]E[dL]C[Thp]LIC[X1][dE](NH(1-deoxy-D-glucityl))-NH2; linker 9-13 via Pyridine(2,6-diCH2)) | –
6 | > 1000 | – | CC[C@H](C)[C@@H]1NC(=O)[C@H](CC(C)C)NC(=O)[C@@H](C)NC(=O)[C@@H](NC(=O)[C@@H](CC(C)C)NC(=O)[C@H](CCC(=O)O)NC(=O)[C@@H]2CCCN2C(=O)[C@H](Cc2c[nH]c3ccccc23)NC(=O)[C@H](Cc2c[nH]c3ccccc23)NC(=O)[C@H](CC(=O)O)NC(=O)CCC(=O)NCCCOCCOCCOCCCNC(=O)CN2CCN(CC(=O)O)CCN(CC(=O)O)CCN(CC(=O)O)CC2)CSCc2cccc(c2)CSC[C@@H](C(=O)O)NC1=O [GIP-285, DOTA-Ttds-Asp-Trp-Trp-Pro-Glu-leu-[Cys(3MeBn)-ala-Leu-Ile-Cys]-OH] ({X3-Suc}-DWWPE[dL]C[dA]LIC-OH; linker 7-11 via mXylylene) | –
